From patent US11497710B2, “Eye drop formulation and method for sustained delivery of medicament to the retina” (Chibi, Inc., priority 2018, dated 2022)

Columns and labels:
[1] = Vitamin E acetate in rabbit tear samples after single 50 μL instillation; assay type: in vivo
Method: Subsequently, tear samples were collected using filter paper strips, and the vitamin E acetate contained in the paper strips extracted using methanol. The amount of vitamin E acetate in the methanol extracts was analyzed using LC/MS/MS by known methods.

[2] = Vitamin E acetate in rabbit aqueous humor samples; assay type: in vivo; details: days 1, 4, 7, 12; quantification limit 1.0 ng/mL

With `CC(=O)Oc1c(C)c(C)c2c(c1C)CC[C@@](C)(CCC[C@H](C)CCC[C@H](C)CCCC(C)C)O2` [Vitamin E acetate, [(2R)-2,5,7,8-tetramethyl-2-[(4R,8R)-4,8,12-trimethyltridecyl]chroman-6-yl] acetate] the “Time vitamin E acetate present in tears of rabbit eyes” value [1] was “at least 12 days”, the concentration at 1 day ([1]; rabbit, tears, topical, Day 1) was 5250 ng/mL and the concentration at 4 day ([1]; rabbit, tears, topical, Day 4) was 114 ng/mL. The concentration at 7 day ([1]; rabbit, tears, topical, Day 7) was 98.6 ng/mL, the concentration at 12 day ([1]; rabbit, tears, topical, Day 12) was 27.4 ng/mL and the “Vitamin E acetate in aqueous humor samples” value [2] was “No detectable”.
